# In patent US6723745B2, “Amino alcohol derivatives” (Sankyo Company, Limited, priority 2000, dated 2004):
# Experiments:
# [1] = tested on: Adjuvant Arthritis; experiment: Inhibitory activity on induction of adjuvant arthritis; assay type: in vivo, rat; conditions: adjuvant (Mycobacterium butylricum) in right hind paw of female Lewis rats; oral, once daily for 21 days; swelling volume of right hind paw
# Method: Determination of the Inhibitory Activity of the Compounds of the Present Invention on Induction of Adjuvant Arthritis
# 1. Preparation of Adjuvant
# Heat-killed, Mycobacterium butylricum was suspended in mineral oil at a concentration of 2 mg/ml and sonicated with an ultrasonic apparatus.
# 2. Preparation of the Test Compound.
# The test compound was suspended in 0.5% Tragacanth solution.
# 3. Induction of Adjuvant Arthritis
# The adjuvant prepared as described in 1 was intradermally injected into the right hind paw of the female rats (usually Lewis rats were used) at a volume of 0.05 ml. Five rats per group were used. In one group of rats, adjuvant was not injected for the control group.
# 4. Administration of the Compound
# The compound solution prepared as described in 2 was orally administered to rats from the injection day of the adjuvant, once daily for 21 days, at a dose of 5 ml/kg. Tragacanth solution (0.5%) was orally administered to one group of rats treated with adjuvant (the control group) and also to rats not treated with adjuvant.
# 5. Calculation Methods of Inhibitory Activity of the Compound
# The volume of the right hind paw was determined with a plethymometer. The volume of the intact paw was subtracted from the individual volume, and the difference was used as the swelling volume. Then the inhibitory activity of the compound was calculated from the individual swelling volume of rats treated with the compound and that in the swelling volume of the control rats. The ID50 value of the compound was obtained from the doses treated and the average inhibitory rate of the group.
# [2] = tested on: Host Versus Graft Reaction (HvGR) in the Rat; experiment: Inhibitory activity against host versus graft reaction (HvGR) in the rat; assay type: in vivo; conditions: Lewis rats injected with WKAH/Hkm spleen cells into hind foot pads; oral, once a day for 4 successive days; popliteal lymph node weight
# Source text: Determination of the Inhibitory Activity Against Host Versus Graft Reaction (HvGR) in the Rat
# (1) Two Strains of Rats (Lewis Rats (Male, 6 Weeks Old, Charles River Japan) and WKAH/Hkm (Male, 7 Weeks Old, SLC Japan)) Were Used. Five Rats (Host) Per Group Were Used.
# The spleen cells were isolated from the spleen of the rats and 1×10^8 cells were suspended in the RPMI640 medium (LIFE TECHNOLOGIES, Rockville Md. USA). One hundred microliter (1×10^7 cells) of the spleen cell suspension whose cells were isolated from either WKAH/Hkm rats or Lewis rats were subcutaneously injected into the bilateral feet pad of the hindlimbs of the Lewis rat.
# (3) Administration of the Compound
# The compound was suspended in 0.5% tragacanth solution The suspended compound was orally administered to rats in the drug-treated group (Lewis rats injected with spleen cells isolated from AH/Hkm rats, and treated with the compound) at a volume of 5 ml/kg. The treatment was started on the day of the spleen cell injection, once a day, for 4 successive days. Tragacanth solution (0.5%) was orally administered, instead of the suspension of the test compound, to the rats in the same strain group (Lewis rats injected with spleen cells which were isolated from the Lewis rats) and to the rats in the control group (Lewis rats injected spleen cells isolated from WKAH/Hkm rats, and not treated with the test compound).
# (4) Determination Procedures for Inhibitory Activity Against HvGR
# The average weight of the popliteal lymph node of the same strain rats was subtracted from the weight of the popliteal lymph node of the individual rat (popliteal lymph gland weight due to HvGR). The inhibition rate of the popliteal lymph node weight due to HvGR of the individual rat treated with the test compound against the average weight of the control rats was calculated. The inhibitory activity of the test compound was expressed as an ID50 value (mg/kg) calculated from the dose-inhibition rate by the least square method.
Compound,ID50 value [1] [mg/kg],HvGR ID50 values [2] [mg/kg]
"Cc1ccc(OCC#Cc2ccc(CC[C@@](C)(N)CO)s2)cc1.O=C(O)/C=C\C(=O)O [Example 34, (2R)-Amino-2-methyl-4-{5-[3-(4-methylphenoxy)propynyl]thiophen-2-yl}butan-1-ol Maleate]",0.0470,–
"Cc1ccc(OCC#Cc2ccc(CC[C@@](C)(N)CO)s2)cc1C.O=C(O)/C=C\C(=O)O [Example 46, (2R)-Amino-2-methyl-4-{5-[3-(3,4-dimethylphenoxy)propynyl]thiophen-2-yl}butan-1-ol Maleate]",–,0.0454
"CCCCCCCCc1ccc(CCC(N)(CO)CO)cc1.Cl [Reference Compound 1, reference compound]",0.1666,0.354
"COc1ccc(OCC#Cc2ccc(CC[C@@](C)(N)CO)s2)cc1OC.O=C(O)/C=C\C(=O)O [Example 40, (2R)-Amino-2-methyl-4-{5-[3-(3,4-dimethoxphenoxy)propynyl]thiophen-2-yl}butan-1-ol Maleate]",–,0.0683
"C[C@](N)(CO)CCc1ccc(CCCCCC2CCCCC2)s1 [Example 11, (2R)-Amino-2-methyl-4-[5-(5-Cyclohexylpent)thiophen-2-yl]butan-1-ol]",–,0.0844
"COc1cccc(OCC#Cc2ccc(CC[C@@](C)(N)CO)s2)c1.O=C(O)/C=C\C(=O)O [Example 43, (2R)-Amino-2-methyl-4-{5-[3-(3-methoxylphenoxy)propynyl]thiophen-2-yl}butan-1-ol Maleate]",–,0.0730
"C[C@](N)(CO)CCc1ccc(C#CCCCC2CCCCC2)s1 [Example 1, (2R)-Amino-2-methyl-4-[5-(5-Cyclohexylpent-1-ynyl)thiophen-2-yl]butan-1-ol]",0.0897,0.0843
